# Measured values as given in article PMC9403717, “Ruthenium complexes show potent inhibition of AKR1C1, AKR1C2, and AKR1C3 enzymes and anti-proliferative action against chemoresistant ovarian cancer cell line” (Frontiers in Pharmacology, 2022).
# Like-named read-outs stand apart in the source and are kept apart here.
# Target: T1, AKR1C2 (Homo sapiens, UniProt P52895)
# T1 construct: made in house
# T1 sequence (P52895 1-323): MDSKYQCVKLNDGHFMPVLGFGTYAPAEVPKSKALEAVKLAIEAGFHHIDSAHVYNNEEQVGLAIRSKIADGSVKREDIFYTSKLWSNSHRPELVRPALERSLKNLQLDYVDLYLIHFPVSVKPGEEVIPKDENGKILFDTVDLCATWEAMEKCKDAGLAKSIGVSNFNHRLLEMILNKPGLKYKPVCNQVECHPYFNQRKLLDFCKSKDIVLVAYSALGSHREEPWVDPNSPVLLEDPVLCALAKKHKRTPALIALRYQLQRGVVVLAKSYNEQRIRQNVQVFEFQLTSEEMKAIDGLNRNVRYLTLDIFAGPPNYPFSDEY
# Assay: Inhibition of recombinant AKR1C2, oxidation of 1-acenaphthenol, progress-curve analysis
# Assay type: biochemical
# Conditions: for k+3: irreversible binding of second inhibitor molecule to E-NADH-I; for fold less efficient inhibition of AKR1C2 compared to AKR1C1: from K3 values; for k+2: irreversible binding of second inhibitor molecule to E-NAD-I
# Experimental: To investigate the effect of ten selected ruthenium compounds, we measured their effect on the time course of oxidation of the artificial substrate 1-acenaphtenol by recombinant enzymes AKR1C1–3. The recombinant enzymes AKR1C1–AKR1C3 were prepared as described previously ([Brozic et al., 2006]). Since the artificial substrate is racemic, the oxidation follows a double exponential pattern as described previously ([Traven et al., 2015]). The in vitro catalytic activity of AKR1C1–3 enzymes was determined spectrophotometrically by monitoring the increase in NADH absorbance at 340 nm (ε(λ340) = 6220 M^−1cm^−1) in the presence of the substrate 1-acenaphthenol. Enzymatic reactions (300 µL) were performed in 100 mm potassium phosphate buffer (pH 9.0), 0.005% (v/v) TritonX-114, 5% (v/v) DMSO, containing 2.3 mm NAD^+ and 1-acenaphthenol at final concentrations of 90, 180, and 250 µM for AKR1C1, AKR1C2, and AKR1C3, respectively. A total of 5 µL of a tested compound in DMSO was added to the reaction mixture. The final concentrations of the tested compounds ranged from 1 to 200 μM, depending on the extent of inhibition (Supplementary Data). The reaction was started by adding 15 µL of AKR1C1, AKR1C2, or AKR1C3 dissolved in 1x PBS (pH 7.3) at final concentrations of 0.11, 0.16, and 1.5 µM, respectively. AKR1C1–3 activity was measured at 37°C for 3 h without shaking using a PowerWave XS microplate reader (Biotek; Winooski, VT, United States). Measurements at seven different concentrations were performed in duplicates or triplicates (Supplementary Figures S2). To mechanistically explain all the obtained progress curves for each ruthenium complex on each enzyme by a common reaction scheme, we extended the originally proposed scheme so that the interaction of the ruthenium complex with apo- and holoenzyme was allowed to be rapid and followed by a slow irreversible association of a second ruthenium complex molecule. However, the affinity of the Ru complexes for the apoenzymes was much lower so this part was excluded from the proposed kinetic model for clarity (Figure 4).
# FIGURE 4 Reaction scheme for the oxidation of 1-acenaphtenol by AKR1C1-3 and its inhibition by ruthenium compounds. E represents apoenzyme, E-NAD and E-NADH represent holoenzyme with bound NAD^+ and NADH, respectively. A and B are enantiomers of substrate 1-acenaphtenol. Symbols which include I (ruthenium compound) represent holoenzyme in complex with one or two inhibitor molecules. KNAD, KNADH, and K2-3 are equilibrium constants and k+2–3 are second-order association rate constants for the binding of the second inhibitor molecule to the enzyme. The progress curves for each enzyme in the presence of ruthenium complexes were analyzed by the WEB server ENZO (https://enzo.cmm.ki.si/) designed exactly for such purposes ([Bevc et al., 2011]).
# [1] = AKR1C2, reversible binding to holoenzyme E-NAD, read-out: K2
# [2] = AKR1C2, reversible binding to holoenzyme E-NADH, read-out: K3
SMILES,k+3 (AKR1C2) [M⁻¹ s⁻¹],Ki [1] [µM],Ki [2] [µM],fold less efficient inhibition of AKR1C2 compared to AKR1C1 [fold],k+2 (AKR1C2) [M⁻¹ s⁻¹],inhibitory effect (in words) (AKR1C2),irreversible inhibition (in words) (AKR1C2)
Cc1ccc(C(C)C)cc1.O=C(C=C([O][Ru][Cl])c1ccc(I)cc1)C(F)(F)F [Compound 1],7.7,305,0.0527,2.5,–,–,–
C1N2CN3CN1CP(C2)C3.Cc1ccc(C(C)C)cc1.F[P-](F)(F)(F)(F)F.O=C(C=C([O][Ru+])c1ccc(I)cc1)C(F)(F)F [Compound 2],–,80,–,–,12.6,–,–
"CN(C)c1ccc(C(=CC(=O)C(F)(F)F)[O][Ru][Cl])cc1.Cc1ccc(C(C)C)cc1 [Compound 3, (η^6-p-cymene)chlorido(4,4,4-trifluoro-1-(4-(dimethylamino)phenyl)-1,3-butandionato)ruthenium(II)]",55.4,157,1.12,26,7.4,–,–
Cc1ccc(C(C)C)cc1.O=C(C=C([O][Ru][Cl])c1ccc2c(c1)OCO2)C(F)(F)F [Compound 5],7.3,–,0.0662,2.8,–,–,–
C1N2CN3CN1CP(C2)C3.Cc1ccc(C(C)C)cc1.F[P-](F)(F)(F)(F)F.O=C(C=C([O][Ru+])c1ccc2c(c1)OCO2)C(F)(F)F [Compound 6],–,8.3,–,–,172,–,–
Cc1ccc(C(C)C)cc1.[Cl-].[O-]c1c(I)cc(Cl)c2cccnc12.[Ru+2] [Compound 7],11.1,–,0.0654,–,–,–,–
C1N2CN3CN1CP(C2)C3.Cc1ccc(C(C)C)cc1.F[P-](F)(F)(F)(F)F.[O-]c1c(I)cc(Cl)c2cccnc12.[Ru+2] [Compound 8],–,1.6,–,–,929,–,–
"Cc1ccc(C(C)C)cc1.O=[N+]([O-])c1ccc([O][Ru][Cl])c2ncccc12 [Compound 9, (η ^6-p-Cymene) (nitroxolinato)chloridoruthenium (II)]",–,191,–,–,–,very weak inhibitory effect,virtually no irreversible inhibition
"C1N2CN3CN1CP(C2)C3.Cc1ccc(C(C)C)cc1.F[P-](F)(F)(F)(F)F.O=[N+]([O-])c1ccc([O][Ru+])c2ncccc12 [Compound 10, (η ^6-p-cymene)(nitroxolinato)(pta)ruthenium(II) hexafluorophosphate]",–,42.5,–,–,5.1,–,–
